# Measurements: patent US20210379016A1, “THERAPEUTICS AND METHODS OF TREATMENT OF ANGIOTENSIN-CONVERTING ENZYME 2 ASSOCIATED CONDITIONS” (Board of Supervisors of Louisiana State University and …, priority 2020, published 2021)
# “Also recorded” adds a separate entry of the source.
# Columns and labels:
# Sigmar1 = Sigmar1 (Homo sapiens, UniProt Q99720); conditions: cited from earlier work; for Ki: read-out: binding affinity Ki for Sigmar1
# [1] = system: ACE2 expression in HEK-293 cells; experiment: ACE2 expression in HEK-293 cells treated with Sigmar1 ligands for 24 hours; assay type: cell-based; conditions: 24 hours treatment
# Sequence of Sigmar1 (Q99720 whole entry, species assumed): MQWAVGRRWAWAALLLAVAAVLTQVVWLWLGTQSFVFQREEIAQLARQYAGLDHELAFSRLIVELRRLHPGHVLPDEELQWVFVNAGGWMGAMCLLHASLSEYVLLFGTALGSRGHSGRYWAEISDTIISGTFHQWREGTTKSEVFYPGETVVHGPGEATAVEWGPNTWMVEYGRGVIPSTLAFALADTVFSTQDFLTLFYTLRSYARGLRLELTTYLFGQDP
compound,measurement,setting,value
"c1ccc(CCN2CCCCC2)cc1 [AC927, 1-(2-phenylethyl) piperidine]",Ki,Sigmar1,30 ± 2 nM
"CN1CCN(CCc2ccc(Cl)c(Cl)c2)CC1 [BD1063, 1-[2-(3,4-dichlorophenyl)ethyl]-4-methylpiperazine]",Ki,Sigmar1,9 ± 1 nM
"CCN(CCc1ccc(Cl)c(Cl)c1)CCN1CCCC1 [BD1067, N-[2-(3,4-dichlorophenyl)ethyl]-N-ethyl-1-pyrrolidineethanamine]",Ki,Sigmar1,2 ± 0.5 nM
"S=c1sc2ccccc2n1CCCCN1CCN(C2CCCCC2)CC1 [CM156, 3-(4-(4-cyclohexylpiperazin-1-yl)butyl) benzo [d]thiazole-2(3H)-thione]",affinity for Sigmar1 (in words),Sigmar1,nanomolar affinity
"CCCN(CCC)CCc1ccc(OC)c(OCCc2ccccc2)c1 [NE-100, 4-methoxy-3-(2-phenylethoxy)-N,N-dipropylbenzeneethanamine]",ACE2 expression,[1],significantly decreased the ACE2 expression; also recorded: decreases the ACE2 expression
COc1ccc(N2C[C@H](CN3CCC(O)(c4ccc5c(c4)OCO5)CC3)OC2=O)cc1 [Panamesine],IC50,Sigmar1,6 nM
CN[C@H]1CC[C@@H](c2ccc(Cl)c(Cl)c2)c2ccccc21 [Sertraline],ACE2 expression,[1],significantly decreased the ACE2 expression; also recorded: decreases the ACE2 expression
